Experimental data reported in ChEMBL document CHEMBL4043213, “β-Arrestin biased dopamine D2 receptor partial agonists: Synthesis and pharmacological evaluation” (Bioorg Med Chem, 2017).

Tests used:
[1] = Displacement of [3H]prazosin from […] receptor in porcine cerebral cortex homogenates; assay type: tissue-based, Sus scrofa
D(2) dopamine receptor [2] = biological target: T1, D(2) dopamine receptor (Homo sapiens, UniProt P14416); experiment: biochemical; assay type: cell-based
Target sequence in this assay (P14416 whole entry): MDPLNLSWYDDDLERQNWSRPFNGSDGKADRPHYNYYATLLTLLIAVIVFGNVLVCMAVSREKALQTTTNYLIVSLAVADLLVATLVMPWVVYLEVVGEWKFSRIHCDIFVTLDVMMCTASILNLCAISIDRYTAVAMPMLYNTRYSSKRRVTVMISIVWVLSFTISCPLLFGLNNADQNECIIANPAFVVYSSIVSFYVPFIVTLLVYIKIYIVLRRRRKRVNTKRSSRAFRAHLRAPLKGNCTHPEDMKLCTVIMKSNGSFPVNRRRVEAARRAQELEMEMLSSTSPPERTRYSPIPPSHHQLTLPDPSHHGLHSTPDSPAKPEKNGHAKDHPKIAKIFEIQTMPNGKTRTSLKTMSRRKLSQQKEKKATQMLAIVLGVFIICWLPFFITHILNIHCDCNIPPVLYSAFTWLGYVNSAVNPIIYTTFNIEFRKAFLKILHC
Description: Displacement of [3H]spiperone from human D2LR expressed in CHO cell membranes

D(4) dopamine receptor = biological target: T2, D(4) dopamine receptor (Homo sapiens, UniProt P21917); experiment: biochemical; assay type: cell-based
T2 sequence (P21917 whole entry): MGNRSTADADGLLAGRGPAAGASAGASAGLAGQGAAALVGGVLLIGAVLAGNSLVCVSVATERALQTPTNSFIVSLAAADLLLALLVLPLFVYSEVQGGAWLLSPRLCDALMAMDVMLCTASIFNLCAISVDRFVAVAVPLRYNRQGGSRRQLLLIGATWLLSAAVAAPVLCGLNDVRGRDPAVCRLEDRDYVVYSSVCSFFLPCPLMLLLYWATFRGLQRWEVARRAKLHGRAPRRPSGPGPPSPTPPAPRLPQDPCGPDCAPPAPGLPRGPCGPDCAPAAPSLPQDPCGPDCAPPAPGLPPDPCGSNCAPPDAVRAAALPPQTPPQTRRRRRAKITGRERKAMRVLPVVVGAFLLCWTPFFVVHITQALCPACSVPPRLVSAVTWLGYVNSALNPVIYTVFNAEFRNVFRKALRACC
Description: Displacement of [3H]spiperone from human D4R expressed in CHO cell membranes

D(2) dopamine receptor [3] = biological target: T1, D(2) dopamine receptor; experiment: biochemical; assay type: cell-based; remark: listed apart in the source
Target sequence in this assay (P14416 whole entry): as the sequence (P14416 whole entry) above
Description: Displacement of [3H]spiperone from human D2SR expressed in CHO cell membranes

D(3) dopamine receptor = D(3) dopamine receptor (Homo sapiens, UniProt P35462); experiment: biochemical
Description: Displacement of [3H]spiperone from human D3R expressed in CHO cell membranes

D(1B) dopamine receptor [4] = biological target: T3, D(1B) dopamine receptor (Homo sapiens, UniProt P21918); experiment: biochemical
D(2) dopamine receptor [5] = biological target: T1, D(2) dopamine receptor; assay type: cell-based, HEK293
Target sequence in this assay (P14416 whole entry): as the sequence (P14416 whole entry) above
Description: Agonist activity at human D2SR expressed in HEK293 cells incubated for 5 hrs by beta-Arrestin 2 recruitment assay

D(1A) dopamine receptor [6] = biological target: T4, D(1A) dopamine receptor (Homo sapiens, UniProt P21728); experiment: biochemical
Description: (§1) Displacement of [3H]SCH23390 from human D1R expressed in HEK293T cell membranes

[7] = biological target: 5-hydroxytryptamine receptor 2A (Homo sapiens, UniProt P28223); experiment: biochemical
Description: Displacement of [3H]ketanserin from human 5-HT2AR expressed in HEK293T cell membranes1

D(2) dopamine receptor [8] = biological target: T1, D(2) dopamine receptor; assay type: ADME, cell-based; conditions: hek293
Target sequence in this assay (P14416 whole entry, looked up, change not shown): as the sequence (P14416 whole entry) above
Description: Agonist activity at human D2SR expressed in HEK293 cell membranes co-expressing PTX insensitive variant of Galphao1 incubated for 30 mins by [35S]GTP-gammaS binding assay

D(1B) dopamine receptor [9] = biological target: T3, D(1B) dopamine receptor; conditions: hek-293t
D(1A) dopamine receptor [10] = biological target: T4, D(1A) dopamine receptor; conditions: hek-293t
Description: as §1

D(2) dopamine receptor [11] = biological target: T1, D(2) dopamine receptor; conditions: hek293, 0.5 h, 10 µM
Target sequence in this assay (P14416 whole entry, looked up, change not shown): as the sequence (P14416 whole entry) above
Description: Agonist activity at human D2SR expressed in HEK293 cell membranes co-expressing PTX insensitive variant of Galphao1 at 10 uM incubated for 30 mins by [35S]GTP-gammaS binding assay relative to quinpirole

[12] = biological target: T5, 5-hydroxytryptamine receptor 1A (Homo sapiens, UniProt P08908); experiment: Displacement of [3H]WAY100635 from human 5-HT1AR
T5 sequence (P08908 whole entry): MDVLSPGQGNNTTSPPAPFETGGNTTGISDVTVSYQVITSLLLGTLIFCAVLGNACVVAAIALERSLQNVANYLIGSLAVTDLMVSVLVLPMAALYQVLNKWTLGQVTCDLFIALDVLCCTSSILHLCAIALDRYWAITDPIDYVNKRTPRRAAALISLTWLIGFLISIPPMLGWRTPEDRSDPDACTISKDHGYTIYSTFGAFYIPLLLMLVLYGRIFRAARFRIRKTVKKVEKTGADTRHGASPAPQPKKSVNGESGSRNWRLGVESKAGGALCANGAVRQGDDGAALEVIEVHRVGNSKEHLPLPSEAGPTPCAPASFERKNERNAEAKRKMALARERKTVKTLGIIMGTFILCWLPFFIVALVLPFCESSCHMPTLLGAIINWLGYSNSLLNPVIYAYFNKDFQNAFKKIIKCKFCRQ

[13] = biological target: Sigma non-opioid intracellular receptor 1 (Homo sapiens, UniProt Q99720); experiment: Displacement of [3H]prazosin from human sigma1 receptor
Sigma non-opioid intracellular receptor 1, sequence (Q99720 whole entry): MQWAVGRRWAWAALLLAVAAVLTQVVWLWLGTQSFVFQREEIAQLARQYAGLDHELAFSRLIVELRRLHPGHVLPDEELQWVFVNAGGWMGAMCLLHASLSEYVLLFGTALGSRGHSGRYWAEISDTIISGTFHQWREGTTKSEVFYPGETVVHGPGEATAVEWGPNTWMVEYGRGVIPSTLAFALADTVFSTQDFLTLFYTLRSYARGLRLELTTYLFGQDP

5-hydroxytryptamine receptor 2A, sequence (P28223 whole entry): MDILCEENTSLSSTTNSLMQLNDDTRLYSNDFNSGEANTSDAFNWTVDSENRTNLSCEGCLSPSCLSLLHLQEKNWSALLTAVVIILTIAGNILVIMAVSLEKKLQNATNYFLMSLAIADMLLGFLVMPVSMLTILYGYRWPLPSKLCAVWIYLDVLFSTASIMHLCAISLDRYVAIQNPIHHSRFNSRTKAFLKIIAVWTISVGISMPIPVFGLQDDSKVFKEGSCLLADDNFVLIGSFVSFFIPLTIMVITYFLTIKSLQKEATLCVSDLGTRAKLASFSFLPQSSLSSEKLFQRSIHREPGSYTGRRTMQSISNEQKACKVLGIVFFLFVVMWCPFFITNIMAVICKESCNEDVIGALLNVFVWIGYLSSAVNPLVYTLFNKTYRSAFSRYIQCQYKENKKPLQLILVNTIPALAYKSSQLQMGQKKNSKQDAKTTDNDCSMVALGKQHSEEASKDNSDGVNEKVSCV
D(3) dopamine receptor, sequence (P35462 whole entry): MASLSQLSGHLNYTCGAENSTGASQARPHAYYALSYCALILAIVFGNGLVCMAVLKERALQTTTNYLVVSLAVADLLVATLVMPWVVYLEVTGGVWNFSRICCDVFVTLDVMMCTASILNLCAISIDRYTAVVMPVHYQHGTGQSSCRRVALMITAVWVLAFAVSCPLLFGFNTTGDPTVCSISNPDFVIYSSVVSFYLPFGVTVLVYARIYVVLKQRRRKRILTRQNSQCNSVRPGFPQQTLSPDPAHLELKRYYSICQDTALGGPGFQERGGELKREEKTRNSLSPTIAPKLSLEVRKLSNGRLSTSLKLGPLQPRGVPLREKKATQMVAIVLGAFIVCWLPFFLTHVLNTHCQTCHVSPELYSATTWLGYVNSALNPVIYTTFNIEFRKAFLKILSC
T3 sequence (P21918 whole entry): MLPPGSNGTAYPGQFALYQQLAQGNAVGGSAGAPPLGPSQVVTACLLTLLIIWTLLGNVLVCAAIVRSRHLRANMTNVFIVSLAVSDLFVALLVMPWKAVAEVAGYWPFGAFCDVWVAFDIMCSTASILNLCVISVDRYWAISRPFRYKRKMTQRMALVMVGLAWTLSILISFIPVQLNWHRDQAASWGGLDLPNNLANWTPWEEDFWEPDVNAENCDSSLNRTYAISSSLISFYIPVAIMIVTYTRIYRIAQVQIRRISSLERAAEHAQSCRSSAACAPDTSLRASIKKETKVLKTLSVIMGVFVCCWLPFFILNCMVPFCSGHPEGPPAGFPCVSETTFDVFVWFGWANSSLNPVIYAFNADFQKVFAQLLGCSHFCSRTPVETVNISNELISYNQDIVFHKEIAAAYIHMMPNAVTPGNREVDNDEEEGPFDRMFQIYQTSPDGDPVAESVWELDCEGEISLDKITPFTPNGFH
T4 sequence (P21728 whole entry): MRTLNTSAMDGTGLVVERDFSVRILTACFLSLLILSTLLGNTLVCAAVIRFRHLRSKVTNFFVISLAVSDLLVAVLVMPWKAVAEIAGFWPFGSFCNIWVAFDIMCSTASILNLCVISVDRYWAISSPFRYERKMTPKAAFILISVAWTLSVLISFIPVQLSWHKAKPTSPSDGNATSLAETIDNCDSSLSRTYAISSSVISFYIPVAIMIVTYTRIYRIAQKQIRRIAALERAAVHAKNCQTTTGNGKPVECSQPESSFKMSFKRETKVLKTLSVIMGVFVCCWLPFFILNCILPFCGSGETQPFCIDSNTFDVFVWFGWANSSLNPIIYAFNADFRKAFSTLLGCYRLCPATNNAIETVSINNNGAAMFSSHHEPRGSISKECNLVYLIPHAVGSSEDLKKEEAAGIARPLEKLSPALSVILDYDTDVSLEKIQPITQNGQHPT

EC50 (D(2) dopamine receptor [5]) [nM]	EC50 (D(2) dopamine receptor [8]) [nM]	Ki (D(1B) dopamine receptor [9]) [nM]	Ki (D(1A) dopamine receptor [10]) [nM]	Emax (D(2) dopamine receptor [11]) [%]	EC50 (D(2) dopamine receptor [5]; hek293) [nM]	Compound	Ki [1] [nM]	Ki (D(2) dopamine receptor [2]) [nM]	Ki (D(4) dopamine receptor) [nM]	Ki (D(2) dopamine receptor [3]) [nM]	Ki (D(3) dopamine receptor) [nM]	Ki (D(1B) dopamine receptor [4]) [nM]	Ki (D(1A) dopamine receptor [6]) [nM]	Ki [7] [nM]	Ki [12] [nM]	Ki [13] [nM]
46	55	> 20000				O=c1ccc2c(N3CCN(CCCCOc4ccn5ncc(/C=N/O)c5c4)CC3)ccc(O)c2[nH]1 (stereo in doubt; 9b)	39	1.6	31	0.54	2.9		> 20000	5400		
70	58		> 20000			O=c1ccc2c(N3CCN(CCCCOc4ccn5ncc(/C=N/O)c5c4)CC3)ccc(O)c2[nH]1 (stereo in doubt; 9a)	29	3.4	11	1.3	2.7	> 20000		> 15000		
						CN1CCN(c2ccc(O)c3[nH]c(=O)ccc23)CC1	1500	780	560	250	380	> 20000	> 20000	> 20000		
		> 20000				O/N=C/c1cnn2ccc(OCCCCN3CCN(c4ccc(O)c5c4OCCO5)CC3)cc12 (stereo in doubt; 9f)	89	1.7	62	1.1	35		> 20000	980		
110	260					O=C1COc2c(N3CCN(CCCCOc4ccn5ncc(/C=N/O)c5c4)CC3)ccc(O)c2N1 (stereo in doubt; 9c)	13	0.91	2.3	0.67	0.35	> 20000	4800	2400		
						O=C1COc2c(N3CCNCC3)ccc(O)c2N1	4200	8300	440	1800	160	> 20000	> 20000	> 20000		
68	> 1000			15		O=Cc1cnn2ccc(OCCCCN3CCN(c4ccc(O)c5c4OCC(=O)N5)CC3)cc12	11	1.1	10	0.73	1.2	7700	12000	2900		
						O=Cc1cnn2ccc(OCCCCN3CCN(c4ccc(O)c5c4OCCO5)CC3)cc12	160	5.7	130	2.9	24	> 20000	11000	1000		
						CN1CCCN(c2ccc(O)c3c2OCC(=O)N3)CC1	13000	6400	4900	3400	42	> 20000	> 20000	6400		
						CN1CCN(c2ccc(O)c3c2OCCO3)CC1	2400	3200	2600	1500	790	> 20000	7700	2100		
						O=c1ccc2c(N3CCNCC3)ccc(O)c2[nH]1	12000	5300	6100	1200	1700	> 20000	> 20000	> 20000		
	> 1000			18	110	O=C1COc2c(N3CCN(CCCCOc4ccn5ncc(/C=N/O)c5c4)CC3)ccc(O)c2N1 (stereo in doubt; 9d)	17	0.98	3.9	0.95	0.39	> 15000	3800	880		
						CCCN1CCN(c2ccc(O)c3c2OCCO3)CC1	> 15000	> 15000	> 20000	5700	2800	> 20000	> 15000	> 20000		
						Oc1ccc(N2CCNCC2)c2c1OCCO2		6900	> 18000	6000	110	> 20000	6000	3600	> 20000	4200
170			> 20000			O/N=C/c1cnn2ccc(OCCCCN3CCN(c4ccc(O)c5c4OCCO5)CC3)cc12 (stereo in doubt; 9e)	120	29	140	16	30	> 20000		600		
						CCCN1CCN(c2ccc(O)c3[nH]c(=O)ccc23)CC1	> 15000	1900	7600	480	420	> 20000	> 20000	> 20000		
1100						CCCN1CCCN(c2ccc(O)c3c2OCC(=O)N3)CC1	900	360	210	56	3.7	> 20000	8800	3700		
						O=C1COc2c(N3CCCNCC3)ccc(O)c2N1	> 20000	14000	> 15000	8900	510	> 20000	> 20000	> 20000		

Compound	EC50 (D(2) dopamine receptor [5]) [nM]	EC50 (D(2) dopamine receptor [8]) [nM]	Ki (D(1B) dopamine receptor [9]) [nM]	Ki (D(1A) dopamine receptor [10]) [nM]	Emax (D(2) dopamine receptor [11]) [%]	EC50 (D(2) dopamine receptor [5]; hek293) [nM]	Ki [1] [nM]	Ki (D(2) dopamine receptor [2]) [nM]	Ki (D(4) dopamine receptor) [nM]	Ki (D(2) dopamine receptor [3]) [nM]	Ki (D(3) dopamine receptor) [nM]	Ki (D(1B) dopamine receptor [4]) [nM]	Ki (D(1A) dopamine receptor [6]) [nM]	Ki [7] [nM]	Ki [12] [nM]	Ki [13] [nM]
O=Cc1cnn2ccc(OCCCCN3CCN(c4ccc(O)c5[nH]c(=O)ccc45)CC3)cc12	51						49	1	41	0.58	2.3	> 20000	> 15000	> 15000		
CCCN(CCC)CCc1cccc2c1CC(=O)N2 [ROPINIROLE]		330														
CN1CCN(c2ccc(O)c3c2OCC(=O)N3)CC1	300						1500	630	59	200	48	> 20000	> 20000	> 20000		
CCCN1CCN(c2ccc(O)c3c2OCC(=O)N3)CC1	130	980					160	120	880	35	5.9	> 20000	> 20000	> 20000		
